In US10842151B2, “Small molecule compound for enhancing plant stress resistance” (SHANGHAI INSTITUTES FOR BIOLOGICAL SCIENCES, CHINESE …, priority 2015, dated 2020):
pEC50: −log10 of the molar value. Where two headings read alike, the source gives them in different places.

Experiments:
[1] = tested on: Arabidopsis ABA synthesis defective mutant aba2-1; assay type: in vivo, Arabidopsis thaliana; details: 5 μM sprayed; after two days; vs DMSO
PYL7 + HAB1 = target: T1, PYL7 + HAB1 (Arabidopsis thaliana, UniProt Q1ECF1); test: AlphaScreen experiment, PYL7 + HAB1; assay type: binding
T1 construct: made in house; host or cells: E. coli BL21 (DE3)
T1 sequence (Q1ECF1 1-211): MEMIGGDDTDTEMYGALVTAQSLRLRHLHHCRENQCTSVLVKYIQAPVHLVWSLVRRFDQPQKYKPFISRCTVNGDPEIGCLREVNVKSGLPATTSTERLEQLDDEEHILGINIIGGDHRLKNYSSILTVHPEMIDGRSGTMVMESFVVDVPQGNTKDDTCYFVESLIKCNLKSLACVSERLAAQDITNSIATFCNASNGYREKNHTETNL
T1 sequence (Q9CAJ0 172-511 partner limits assumed): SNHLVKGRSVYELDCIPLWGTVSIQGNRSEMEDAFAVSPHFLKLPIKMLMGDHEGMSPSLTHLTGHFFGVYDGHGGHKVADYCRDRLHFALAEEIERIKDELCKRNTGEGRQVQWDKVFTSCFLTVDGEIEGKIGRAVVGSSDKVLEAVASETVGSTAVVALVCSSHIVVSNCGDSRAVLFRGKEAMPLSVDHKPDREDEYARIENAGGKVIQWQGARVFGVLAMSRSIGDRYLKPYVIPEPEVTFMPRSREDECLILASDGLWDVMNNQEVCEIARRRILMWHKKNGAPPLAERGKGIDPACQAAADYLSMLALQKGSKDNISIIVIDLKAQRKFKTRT
Description: (§1) After incubating for 1.5 hours at room temperature in the dark, it was placed into an Envision Plate Reader (available from Perkin Elmer) under the programmed AlphaScreen procedure for readings.

cotton = test: Cotton leaf transpiration experiment (thermal imaging); assay type: in vivo; details: 50 μM; after two days; vs DMSO
Description: (§2) Leaf transpiration experiments of soybean and cotton for compound 0720B were carried out at 26° C. with long-day lighting. 16 days and 23 days after sowing, a solution containing 0.1% tween-20 and corresponding concentration of (+)-ABA, or 0720B compound or 0.1% Tween-20 and 0.05% DMSO (control) was sprayed in an amount of 4 ml/pot. Images were taken daily using the FLIR A655sc thermal imaging camera at the same time before and after spraying.

soybean Williams 82 = test: Soybean leaf transpiration experiment (thermal imaging); assay type: in vivo
Description: After three weeks of continuous watering, 0.05% tween-20 and corresponding concentrations of DMSO (control)/compound (+)-ABA/0918/1127 were sprayed onto the plants in a single administration with an amount of 1.2 ml/pot. Images were taken daily using the FLIR A655sc thermal imaging camera at the same time before and after spraying. The Williams 82 ecotype was used in soybean leaf transpiration experiments for compounds 0604c, 0918 and 1127 and was long-day cultured at 26° C. After the plants grew and had 3 leaves in each of 3 groups, 0.05% tween-20 and 50 μM DMSO (control)/(+)-ABA/0604c/0918/1127 compounds were sprayed in a single administration with an amount of 4 ml/pot. Images were taken daily using the FLIR A655sc thermal imaging camera at the same time before and after spraying.
as §2

[2] = tested on: Arabidopsis Col-0 ecotype; test: Soil drought experiment, Arabidopsis; assay type: in vivo, Arabidopsis thaliana
Description: Seeds of Arabidopsis Col-0 ecotype were sterilized with NaClO and then sown on ½ MS solid medium at 4° C. for 3 days of vernalization. After 6 days of growing, the well-grown seedlings having uniform size were selected and transferred into 8×7×6 cm^3 pots. Each pot was filled with the same weight of soil and the same number of plants (six plants) was planted to reduce experimental error. All the pots were subjected to a short-day culture at 22° C. After two weeks, watering was stopped for drought treatment. […] The position of the flowerpot was changed every day during the process of drought to reduce the error caused by environmental factors. During the whole drought period, the solution was sprayed twice in total and photos were recorded regularly. The watering was resumed in about three weeks.

[3] = tested on: Arabidopsis thaliana Col-0 ecotype seeds; test: Seed germination, Col-0; assay type: in vivo; details: 1 μM; six days after seeding
Description: (§3) Two lines of plant were sown simultaneously on a single medium of 6 cm diameter, with 15 seeds sown for each line and 4 replicates for each compound. […]

[4] = tested on: pyr1;pyl1;pyl4 triple mutant seeds; test: Seed germination, PYR/PYL triple mutant; assay type: in vivo, Arabidopsis thaliana; details: 1 μM; six days after seeding
Description: as §3

PYR1 + HAB1 = target: T2, PYR1 + HAB1 (Arabidopsis thaliana, UniProt O49686); test: AlphaScreen experiment, PYR1 + HAB1; assay type: binding; details: column 2
T2 sequence (O49686 1-191): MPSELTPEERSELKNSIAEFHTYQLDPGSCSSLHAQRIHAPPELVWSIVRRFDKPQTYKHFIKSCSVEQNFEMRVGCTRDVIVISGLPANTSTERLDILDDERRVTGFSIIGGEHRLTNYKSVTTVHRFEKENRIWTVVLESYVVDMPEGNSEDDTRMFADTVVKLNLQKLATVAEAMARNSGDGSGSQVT
T2 sequence (Q9CAJ0 172-511 partner): T1 sequence (Q9CAJ0 172-511 partner limits assumed)
Description: as §1

PYL2 + HAB1 [5] = target: T3, PYL2 + HAB1 (Arabidopsis thaliana, UniProt O80992); test: AlphaScreen experiment, PYL2 + HAB1; assay type: binding
T3 construct: made in house; host or cells: E. coli BL21 (DE3)
T3 sequence (O80992 14-188 limits assumed): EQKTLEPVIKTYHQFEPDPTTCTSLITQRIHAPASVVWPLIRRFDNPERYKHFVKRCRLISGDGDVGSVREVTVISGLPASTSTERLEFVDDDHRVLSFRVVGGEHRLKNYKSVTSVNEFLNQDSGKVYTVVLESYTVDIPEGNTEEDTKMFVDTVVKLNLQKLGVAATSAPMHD
T3 sequence (Q9CAJ0 172-511 partner limits assumed): T1 sequence (Q9CAJ0 172-511 partner limits assumed)
Description: as §1

[6] = tested on: ABA-induced environmental stress-related gene expression; test: Gene expression analysis (fluorescence quantitative PCR); assay type: in vivo, Arabidopsis thaliana (Col-0); details: for expression levels of most ABA-induced stress-related genes compared with ABA: 10 μM, 6 hours of treatment, 10-day-aged seedlings
Description: The whole plant or leaves were taken, and RNA extraction was carried out by using conventional methods. After reverse transcription, the fluorescence quantitative PCR was carried out. Triple biological samples were taken for each treatment which was performed twice. The ACT7 gene was used as a reference gene.

PYL2 + HAB1 [7] = target: T3, PYL2 + HAB1; test: HAB1 phosphatase activity assay with PYL2, SnRK2.6 phosphorylated polypeptide substrate; assay type: biochemical
Description: (§4) HAB1 Phosphatase Activity Assay […] The reaction system was incubated at room temperature for 30 minutes, followed by a further reaction for 30 minutes after adding an 11-amono acid phosphorylated polypeptide as a substrate. The phosphorylated polypeptide consisting of amino acid 170-180 of SnRK2.6 protein kinase (sequence […]) was purchased from […] company, wherein phosphorylated […] was a known HAB1 dephosphorylation target site. After 30 minutes, chromogenic reagent (purchased from BioVision) was added and the absorbance at 650 nm was read on a microplate reader (Molecular Devices).

[8] = tested on: soybean GmPYL3 and GmPYL6 + Arabidopsis AtHAB1; test: AlphaScreen experiment with soybean GmPYL receptors; assay type: binding; details: FIG. 9
Description: as §1

[9] = tested on: PYR/PYL receptors (PYR1, PYL1, PYL2 and PYL7)-HAB1 complex; test: Broad spectrum experiment on PYR/PYL receptors (HAB1 phosphatase activity); assay type: biochemical, Arabidopsis; details: 1 μM
Description: as §4

[10] = 5 μM sprayed, 18 days after drought
[11] = 10 μM sprayed, after 17 days of drought
[12] = number in brackets, read-out: Half maximum effect concentration EC50 (PYL2 + HAB1)
[13] = number in brackets, read-out: Half maximum effect concentration EC50 (PYL7 + HAB1)
[14] = number in brackets, read-out: Half maximum effect concentration EC50 (PYR1 + HAB1)

CC1=CC(=O)CC(C)(C)[C@@]1(O)/C=C/C(C)=C\C(=O)O [ABA, Abscisic Acid, reference compound]
leaf surface temperature [1]: higher than that of DMSO control group | pEC50 (PYL7 + HAB1; Half maximum effect concentration EC50 (PYL7 + HAB1), class, class symbol): 5.00 to 6.00 | pEC50 (PYL7 + HAB1; Half maximum effect concentration EC50 (PYL7 + HAB1), number in brackets): 5.97 | leaf temperature (cotton): had no difference from that in the control group | leaf temperature (soybean Williams 82; 50 μM sprayed, 0.2 μmol per plant, after three days, vs DMSO): had no difference with the control | leaf temperature (soybean Williams 82; two days after spraying, 0720B 20 μM or 50 μM, ABA 50 μM): had no difference from that in the control group | plant survival [2, 10]: died because of drought | plant survival [2, 11]: died because of drought | germination of Col-0 ecotype seeds [3]: could still inhibit germination of Col-0 ecotype seeds | germination of pyr1;pyl1;pyl4 triple mutant seeds [4]: could not inhibit germination of PYR/PYL triple mutant pyr1;pyl1;pyl4 seeds | pEC50 (PYR1 + HAB1; Half maximum effect concentration EC50 (PYR1 + HAB1), class, class symbol): 6.00 to 7.00 | pEC50 (PYR1 + HAB1; Half maximum effect concentration EC50 (PYR1 + HAB1), number in brackets): 6.15 | pEC50 (PYL2 + HAB1 [5]; Half maximum effect concentration EC50 (PYL2 + HAB1), class, class symbol): 6.00 to 7.00 | pEC50 (PYL2 + HAB1 [5]; Half maximum effect concentration EC50 (PYL2 + HAB1), number in brackets): 6.39

CCCN1C(=O)CCc2cc(NS(=O)(=O)Cc3ccc(C)cc3)ccc21 [AM1, 4-methyl-N-(1,2,3,4-tetrahydro-2-oxo-1-propyl-6-quinolinyl)-benzene methanesulfonamide, reference compound]
expression levels of most ABA-induced stress-related genes compared with ABA [6]: lower than the level in the plants treated with 10 μM ABA | leaf surface temperature [1]: higher than that of DMSO control group | inhibition ratio Z of HAB1 relative enzyme activity (PYL2 + HAB1) (PYL2 + HAB1 [7]; at 0.1 μM, Z relative to ABA): 86% | plant survival [2, 11]: died because of drought | germination of Col-0 ecotype seeds [3]: could still inhibit germination of Col-0 ecotype seeds | germination of pyr1;pyl1;pyl4 triple mutant seeds [4]: could not inhibit germination of PYR/PYL triple mutant pyr1;pyl1;pyl4 seeds | pEC50 (PYL2 + HAB1 [5]; [12]): 6.32

CCCN1C(=O)CCc2cc(NS(=O)(=O)Cc3ccc(C)c(F)c3)ccc21 [Compound 0604c]
expression levels of most ABA-induced stress-related genes compared with ABA [6]: significantly exceeded the level in the plants treated with 10 μM ABA | expression level of relevant genes compared with ABA ([6]; one day after treatment, ABA 10 μM): significantly higher than that in the plants treated with 10 μM ABA | pEC50 (PYL7 + HAB1; [13]): 7.52 | affinities for soybean GmPYL proteins compared with ABA [8]: significantly higher affinities | plant survival [2, 11]: still survived | germination of Col-0 ecotype seeds [3]: could still inhibit germination of Col-0 ecotype seeds | germination of pyr1;pyl1;pyl4 triple mutant seeds [4]: could not inhibit germination of PYR/PYL triple mutant pyr1;pyl1;pyl4 seeds | pEC50 (PYR1 + HAB1; [14]): 7.40 | binding to PYR/PYL receptors [9]: could bind with PYR1/PYL1/PYL2/PYL3/PYL4/PYL5/PYL7/PYL10 | binding ability with PYR1/PYL1/PYL2/PYL7 compared with ABA ([9]; FIG. 1, FIG. 13): significantly higher than those of ABA | pEC50 (PYL2 + HAB1 [5]; [12]): 7.40

CCCn1c(=O)ccc2cc(NS(=O)(=O)Cc3c(F)c(F)c(C)c(F)c3F)ccc21 [Compound 0717]
expression levels of most ABA-induced stress-related genes compared with ABA [6]: significantly exceeded the level in the plants treated with 10 μM ABA

CCCN1C(=O)CC(C)(C)c2cc(NS(=O)(=O)Cc3c(F)c(F)c(C)c(F)c3F)ccc21 [Compound 0825A]
inhibition of the dephosphorylation effect of HAB1 on SnRK2.6 phosphorylated polypeptide compared with ABA (PYL2 + HAB1 [7]; PYL2 receptor, same concentration as ABA): significantly better than that of ABA at the same concentration

CCCN1C(=O)CCc2cc(NS(=O)(=O)Cc3ccc(Cl)cc3F)ccc21 [Compound 0925]
pEC50 (PYR1 + HAB1; [14]): 7.40 | pEC50 (PYL2 + HAB1 [5]; [12]): 7.22

CCCN1C(=O)CCc2cc(NS(=O)(=O)Cc3ccc(C(F)(F)F)c(F)c3)ccc21 [Compound 1020A]
pEC50 (PYR1 + HAB1; [14]): 6.85 | pEC50 (PYL2 + HAB1 [5]; [12]): 7.10

CCCN1C(=O)CCc2cc(NS(=O)(=O)Cc3c(F)c(F)c(C(F)(F)F)c(F)c3F)ccc21 [Compound 1020B]
pEC50 (PYR1 + HAB1; [14]): 7.30 | pEC50 (PYL2 + HAB1 [5]; [12]): 7.10

CCCN1C(=O)CCc2cc(NS(=O)(=O)Cc3ccc(C)c(Cl)c3)ccc21 [Compound 1103B]
pEC50 (PYL7 + HAB1; [13]): 6.82 | pEC50 (PYR1 + HAB1; [14]): 6.92 | pEC50 (PYL2 + HAB1 [5]; [12]): 7.30

CCCN1C(=O)CCc2cc(NS(=O)(=O)Cc3ccc(C)cc3F)ccc21 [Compound 1125A]
pEC50 (PYL7 + HAB1; [13]): 7.40 | pEC50 (PYR1 + HAB1; [14]): 7.30 | pEC50 (PYL2 + HAB1 [5]; [12]): 7.52

CCCN1C(=O)CCc2cc(NS(=O)(=O)Cc3cc(F)c(C)c(F)c3)ccc21 [Compound 1125B]
pEC50 (PYL7 + HAB1; [13]): 7.70 | plant survival [2, 10]: still survived | pEC50 (PYR1 + HAB1; [14]): 7.70 | pEC50 (PYL2 + HAB1 [5]; [12]): 7.70
